In US20170014375A1, “PHARMACEUTICAL COMPOSITION COMPRISING EFFECTIVE DOSE OF POMIFERIN FOR TREATING CANCERS” (Macau University of Science and Technology, priority 2015, published 2017):

Key:
[1] = system: Bax-Bak double knock out (DKO) mouse embryonic fibroblasts; assay: MTT cytotoxicity assay, Bax-Bak DKO MEFs; format: cell-based; conditions: Fibroblast, 72 h, 3 days, read-out: Means of IC50
Procedure: (§1) The test compound of pomiferin is dissolved in DMSO at a final concentration of 100 mmol/L and stored at −20° C. Cytotoxicity is assessed using the 3-(4,5-dimethylthiazol-2-yl)-2,5-diphenyltetrazolium bromide assay as previously described^29. 2500 of caspase wild-type (caspase WT), caspase-3 deficient (caspase 3KO), caspase-7 deficient (caspase 7KO), caspase-3/-7 deficient (caspase 3/7 DKO), caspase-8 deficient (caspase 8KO), Bax-Bak wild-type (Bak-Bak WT) and Bax-Bak double knock out (Bak-Bak DKO) mouse embryonic fibroblasts (MEFs) are seeded on 96-well plates per well. After overnight pre-incubation, the cells are exposed to different concentrations of pomiferin (namely 100, 50, 25, 12.5, 6.25, 3.125, 1.5625, 0.78, 0.39, 0.195, 0.079, 0.039 μmol/L) for 3 days. Subsequently, 10 μL of MTT reagents is added to each well and incubated at 37° C. for 4 hours, followed by the addition of 100 μL solubilization buffer (10% SDS in 0.01 mol/L HCl) and overnight incubation. Absorbance at 585 nm is determined from each well on the following day. The percentage of cell viability is calculated using the following formula: Cell viability (%)=Cells numbertreated/Cells numberDMSO control×100. Data is obtained from three independent experiments.

HeLa cancer cells = assay: Western blot of autophagic marker LC3-II conversion; format: cell-based, human; conditions: 0-15 μM, FIG. 1A
Procedure: After pomiferin treatments in the presence or absence of lysosomal inhibitor 50 nM of Bafilomycin A1 or autophagy inhibitor 5 mM 3-MA, HeLa cancer cells are harvested and lysed in RIPA buffer (Cell Signaling Technologies Inc., Beverly, Mass.). The cell lysates are then resolved by SDS-PAGE. After electrophoresis, the proteins from SDS-PAGE are transferred to nitrocellulose membrane which is then blocked with 5% non-fat dried milk for 60 minutes. The membrane is then incubated with LC3 primary antibodies (1:1000) in TBST overnight at 4° C. After that, the membrane is further incubated with HRP-conjugated secondary antibodies for 60 minutes. Finally, protein bands are visualized by using the ECL Western Blotting Detection Reagents (Invitrogen, Paisley, Scotland, UK).

[2] = system: Atg7 deficient (Atg7−/−) mouse embryonic fibroblasts; assay: Annexin V/PI flow cytometry cell death, Atg7−/− MEFs; format: cell-based; conditions: 2 μM, 24 h, FIG. 6B
Procedure: Cell viability is measured using an annexin V staining kit (BD Biosciences, San Jose, Calif., USA). Briefly, Atg7 wild-type (Atg7+/+ or Atg7-wt) and Atg7 deficient (Atg7−/− or Atg7-ko) mouse embryonic fibroblasts (MEFs) are treated with the 2 μM pomiferin for 24 h. Cells are then harvested and analysed by multiparametric flow cytometry using FITC-Annexin V and Propidium iodide staining (BD Biosciences, San Jose, Calif., USA) according to the manufacturer's instructions. Flow cytometry is then carried out using a FACSCalibur flow cytometer (BD Biosciences, San Jose, Calif., USA). Data acquisition and analysis is performed with CellQuest (BD Biosciences, San Jose, Calif., USA). Data are obtained from three independent experiments.

[3] = system: Hep3B (human liver cancer) cells; assay: MTT cytotoxicity assay, Hep3B; format: cell-based; conditions: 72 h, Hep 3B (Liver), 3 days, read-out: Means of IC50
Procedure: Pomiferin is dissolved in DMSO at a final concentration of 100 mmol/L and stored at −20° C. Cytotoxicity is assessed using the 3-(4,5-dimethylthiazol-2-yl)-2,5-diphenyltetrazolium bromide assay. 4000-8000 HeLa (human cervical cancer), MCF-7 (human breast cancer), HepG2 and Hep3B (human liver cancer), H1299 and A549 (human lung cancer), LNCap (human prostate cancer) and LLC-1 (mouse Lewis lung carcinoma) cells are seeded on 96-well plates per well. After overnight pre-incubation, the cells are exposed to different concentrations of pomiferin ([…]) for 3 days. Subsequently, 10 μL of MTT reagents is added to each well and incubated at 37° C. for 4 hours followed by the addition of 100 μL solubilization buffer (10% SDS in 0.01 mol/L HCl) and overnight incubation. Absorbance at 585 nm is determined from each well the next day. The percentage of cell viability is calculated using the following formula: Cell viability (%)=Cells number treated/Cells number DMSO control×100. Data are obtained from three independent experiments.

[4] = system: HCT-116 p53+/+ isogenic colon cancer cells; assay: MTT cytotoxicity assay, HCT116 p53+/+; format: cell-based; conditions: Homo sapiens, HCT-116, 72 h, HCT116 p53+/+ (wild-type), 3 days, read-out: Means of IC50
Procedure: as §1, with “4000” for “2500”, “drug-resistant HCT-116 p53+/+, HCT-116 p53−/−” for “caspase wild-type (caspase WT), caspase-3 deficient (caspase 3KO), caspase-7 deficient (caspase 7KO), caspase-3/-7 deficient (caspase 3/7 DKO), caspase-8 deficient (caspase 8KO), Bax-Bak wild-type (Bak-Bak WT)”, “HCT-116 p53−/− isogenic colon cancer cells” for “Bax-Bak double knock out (Bak-Bak DKO) mouse embryonic fibroblasts (MEFs)”, “[…])” for “μmol/L)”

With CC(C)=CCc1c2c(c3occ(-c4ccc(O)c(O)c4)c(=O)c3c1O)C=CC(C)(C)O2 [pomiferin] the IC50 [1] was 0.986 µM, the “autophagic marker LC3-II conversion” value (HeLa cancer cells) was “induced” and the “cell death (in words)” value [2] was “not in autophagy deficient cells”. For the same compound, the IC50 [3] was 16.3 µM and the IC50 [4] was 6.51 µM.
